From patent US7208481B2, “Aminodiphosphonate apolipoprotein E modulators” (ILEX Products, Inc., priority 2002, dated 2007)
“Also recorded” adds a separate entry of the source. Blank lines part the entries; values can stand above or below the molecule they belong to.

Tests used:
[1] = test system: secretion of apoE by THP-1 cells; assay: Secretion of apoE by THP-1 cells, apoE determined by ELISA; assay type: cell-based, human; settings: reference compound for assay validation
Protocol: The THP-1 cell line was derived from the peripheral blood of a child with acute monocytic leukaemia and were obtained from the European Collection of Animal Cell Cultures (ECACC, #88081201). […] The cells were grown as non-adherent cells in RPMI 1640 culture medium, 2 mM glutamine, 20 μM 2-mercaptoethanol. Fresh medium was added to maintain cell density between 2 and 9×10^5 cells/ml. Once a week, new cultures were initiated by inoculating 10 ml of medium with 2×10^6 cells in a 75 cm^2 plate. The plates were kept at 37° C. in a 5% CO2 atmosphere. For screening, cells were seeded in 24-well plates at the density of 2×10^5 cells per well. Phorbol-12-myristat-13-acetate (PMA) was added at 0 and 5 nM to initiate TBP-1 differentiation into adherent macrophage-like cells. Vehicles, reference compounds and test compounds were added simultaneously at concentrations varying from 50 μM and incubated for 72 hours. […]
Ninety-six well-microtiter plates were coated by incubating with a 5% gelatin solution from porcine skin, bloom 60 in 50 mM carbonate-bicarbonate buffer, pH9.6 at the concentration of 200 μl/well, for 2 hours at 37° C. The coating solution was carefully removed and the sample to be analyzed was added (100 μl/well) at the appropriate dilution. […] The absorbance at 492 nm versus 620 nm was read on a microplate photometer and the results were then converted in human apoE ng equivalent. […]

rat plasma apoE = assay: In vivo rat model: plasma apoE by ELISA after 5 days of oral treatment
Protocol: Rats fed a normal diet are a convenient model recently proposed for the screening of apoE modulating compounds (Leininger-Muller & Siest, 1996, herein incorporated by reference).
(§1) This model was validated by testing the hypocholesterolemic drug gemfibrozil (200 mg/kg) as reference compound.
(§2) […] Test compounds were given as a suspension in 20% Tween-80 supplemented with 0.5% carboxymethylcellulose. The control group received 1 ml vehicle alone. After a treatment period of 5 days, rats were weighed, sacrificed by decapitation under pentobarbital anesthesia after an overnight fast. Blood was collected on EDTA and plasma was used for analysis.
(§3) ApoE was quantified by an ELISA method using a goat anti-apolipoprotein E antibody. Briefly, a dilution to 1/200 of rat plasma was coated on microtiter plates. ApoE was recognized by the polyclonal antibody; the conjugate antibody (anti-goat IgG peroxidase) was then added for substrate biochemical recognition. Apolipoprotein E was expressed as % change from mean control value. Cholesterol was measured with a commercially available enzymatic kit. Results were expressed as % change from control group.

rat plasma HDLc = assay: In vivo rat model: plasma HDL cholesterol after 5 days of oral treatment; settings: for Rat Plasma HDLc (% change): dose-response experiment, OFA rats, Day 5
Protocol: as §1, §2, §3

[2] = OFA rats, 200 mg/kg/day p.o. for 5 days, change from mean control value
[3] = OFA rats, 50, 100, 200 mg/kg p.o. for 5 days
[4] = rats fed a normal diet, 200 mg/kg/day for 5 days

SMILES: CC1=C(/C=C/C(C)=C/C=C/C(C)=C/C(=O)O)C(C)(C)CCC1 [ATRA, all-trans retinoic acid, reference compound]
production of apoE by THP-1 cells (effect in words) [1]: decreased; also recorded: potent inhibitor
plasma level of apoE in rats (effect in words) (rat plasma apoE; rats, dose not given): decrease
HDL cholesterol level in rats (effect in words) (rat plasma HDLc; rats, dose not given): decrease

SMILES: COP(=O)(OC)C(Nc1ccccn1)P(=O)(OC)OC [Compound 1, Tetramethyl N-(2-pyridyl)aminomethylenediphosphonate]
Rat Plasma apoE (% change) (rat plasma apoE; [2]): +69 % change
melting point: 162 to 164 °C

SMILES: CCOP(=O)(OCC)C(Nc1ccccn1)P(=O)(OCC)OCC [Compound 2, Tetraethyl N-(2-pyridyl)aminomethylenediphosphonate]
Rat Plasma apoE (% change) (rat plasma apoE; [2]): +44 % change
plasma apoE level, dose dependence (in words) (rat plasma apoE; [3]): increased in a dose-response way
Rat Plasma apoE (% change) (rat plasma apoE; dose-response experiment, OFA rats, 50 mg/kg/day p.o. for 5 days, Day 5): +38 % change
Rat Plasma apoE (% change) (rat plasma apoE; dose-response experiment, OFA rats, 100 mg/kg/day p.o. for 5 days, Day 5): +37 % change
Rat Plasma apoE (% change) (rat plasma apoE; dose-response experiment, OFA rats, 200 mg/kg/day p.o. for 5 days, Day 5): +62 % change
plasma HDL cholesterol (HDLc) level, dose dependence (in words) (rat plasma HDLc; [3]): increased in a dose-response way
Rat Plasma HDLc (% change) (rat plasma HDLc; 50 mg/kg/day p.o. for 5 days): +27 % change
Rat Plasma HDLc (% change) (rat plasma HDLc; 100 mg/kg/day p.o. for 5 days): +34 % change
Rat Plasma HDLc (% change) (rat plasma HDLc; 200 mg/kg/day p.o. for 5 days): +68 % change

melting point: 98 to 100 °C
SMILES: CC(C)OP(=O)(OC(C)C)C(Nc1ccccn1)P(=O)(OC(C)C)OC(C)C [Compound 3, Tetraisopropyl N-(2-pyridyl)aminomethylenediphosphonate]
Rat Plasma apoE (% change) (rat plasma apoE; po, 200 mg/kg/day, 120 h): +16 % change

melting point: 156 to 158 °C
SMILES: CCOP(=O)(OCC)C(Nc1cnc2ccccc2c1)P(=O)(OCC)OCC [Compound 9, Tetraethyl N-(3-quinolinyl)aminomethylenediphosphonate]

SMILES: Cc1ccc(C)c(OCCCC(C)(C)C(=O)O)c1 [gemfibrozil, reference compound]
apoE increase in rats (model validation) (rat plasma apoE; [4]): +75%
HDL cholesterol increase in rats (model validation) (rat plasma HDLc; [4]): +42%
